Source: patent publication US5528046A, “Method and device for determining the location and number of fluorescent molecules” (Hamamatsu Photonics K.K., priority 1992, dated 1996)

Assays:
[1] = molecular target: bovine serum albumin (Bos taurus, UniProt P02769); assay: Affinity of bovine serum albumin for FLB (FLB absorption spectrum); type: binding; conditions: causes no changes to FLB spectrum
From the text: Foster and Konig report that is has been found based on changes of absorption spectra of some organic dye molecules (fluorescent molecules) containing a fluorescent substrate in water that the organic dye molecules form dimers at high concentration (10^-3 -10^-1 M). Koizumi and Mataga report a change of absorption spectrum in an aqueous solution containing fluorescent molecules in the presence of electrolytic polymers. Based on these studies, it is considered that changes of the spectra are caused by the cohesive effect of the fluorescent molecules to the polymers. Considering these past studies and the bonding between SA and B due to their high affinity, it is considered that similarly sufficient local adhesion effects of FLB to SA can be present. This is further optical evidence of the interaction between SA and FLB. For example, bovine serum albumin, which has no affinity with FLB, causes no changes to FLB spectrum.

[2] = molecular target: streptavidin (SA), tetramer (Streptomyces avidinii, UniProt P22629); conditions: cited from earlier work
streptavidin (SA), tetramer, sequence (P22629 25-183): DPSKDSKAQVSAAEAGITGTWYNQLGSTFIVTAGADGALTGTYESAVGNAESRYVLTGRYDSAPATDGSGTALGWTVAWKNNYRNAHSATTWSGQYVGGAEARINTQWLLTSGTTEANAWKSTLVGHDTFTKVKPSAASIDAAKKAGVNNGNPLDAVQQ

bovine serum albumin, sequence (P02769 25-607): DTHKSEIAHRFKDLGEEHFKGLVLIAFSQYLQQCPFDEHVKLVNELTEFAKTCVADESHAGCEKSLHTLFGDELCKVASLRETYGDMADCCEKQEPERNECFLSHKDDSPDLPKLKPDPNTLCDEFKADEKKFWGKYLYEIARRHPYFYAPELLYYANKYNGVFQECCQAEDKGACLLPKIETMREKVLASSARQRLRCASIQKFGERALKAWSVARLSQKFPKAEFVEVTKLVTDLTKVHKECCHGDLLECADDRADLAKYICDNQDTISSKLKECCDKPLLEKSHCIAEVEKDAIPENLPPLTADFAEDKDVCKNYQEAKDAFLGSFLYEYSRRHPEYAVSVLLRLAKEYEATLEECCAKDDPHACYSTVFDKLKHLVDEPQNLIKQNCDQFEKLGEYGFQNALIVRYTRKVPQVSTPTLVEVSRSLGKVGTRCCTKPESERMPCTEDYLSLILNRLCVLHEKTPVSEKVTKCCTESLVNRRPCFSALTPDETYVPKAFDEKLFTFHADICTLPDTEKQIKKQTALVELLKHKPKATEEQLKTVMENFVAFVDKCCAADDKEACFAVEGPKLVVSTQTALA

## O=C(CCCCCNC(=O)CCCC[C@@H]1SC[C@@H]2NC(=O)N[C@@H]21)NCCCCCNC(=S)Nc1ccc2c(c1)C(=O)OC21c2ccc(O)cc2Oc2cc(O)ccc21 [FLB, fluorescein biotin]
[1]
  affinity with FLB: no affinity

## O=C(O)CCCC[C@@H]1SC[C@@H]2NC(=O)N[C@@H]21 [B, biotin]
[2]
  lifetime of the SA/B complex: about 2.9 days
